This note sets out measurements from PMC6010071, “Blocking oestradiol synthesis pathways with potent and selective coumarin derivatives” (Journal of Enzyme Inhibition and Medicinal Chemistry, 2018).

Like-named read-outs stand apart in the source and are kept apart here.

The experiment concerns the target T1, MAO-B (Homo sapiens, UniProt P27338).
T1 construct: purchased Sigma-Aldrich (St. Louis, MO)
T1 sequence (P27338 1-520): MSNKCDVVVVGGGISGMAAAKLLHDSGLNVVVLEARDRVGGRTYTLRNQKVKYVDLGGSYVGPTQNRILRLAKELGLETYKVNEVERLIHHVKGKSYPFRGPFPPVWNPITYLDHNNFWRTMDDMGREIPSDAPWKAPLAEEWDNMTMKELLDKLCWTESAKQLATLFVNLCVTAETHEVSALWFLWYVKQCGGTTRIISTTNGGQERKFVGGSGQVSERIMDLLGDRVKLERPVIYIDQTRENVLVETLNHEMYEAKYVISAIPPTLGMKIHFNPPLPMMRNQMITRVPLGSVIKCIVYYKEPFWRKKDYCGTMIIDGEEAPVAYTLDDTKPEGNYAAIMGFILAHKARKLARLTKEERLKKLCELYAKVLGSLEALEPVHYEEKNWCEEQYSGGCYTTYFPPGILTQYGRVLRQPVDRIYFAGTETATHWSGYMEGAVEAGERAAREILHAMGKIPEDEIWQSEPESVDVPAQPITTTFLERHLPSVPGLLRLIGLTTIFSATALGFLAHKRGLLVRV
Nature of the experiment: MAO-B inhibition, continuous spectrophotometric assay. The class given is biochemical.

Where [1] appears, read: duplicated dilution series, read-out: MAO-B inhibition pIC50 (converted).
Where [2] appears, read: restated from pIC50 above 6, read-out: MAO-B inhibition IC50.

As for `COc1ccc2cc(-c3ccc(O)c(F)c3)c(=O)oc2c1` [Compound 6, 3–(3-fluoro-4-hydroxyphenyl)-7-methoxy-2H-chromen-2-one], the IC50 is 407 nM under setting [1] and less than 1000 nM under setting [2].

For `COc1ccc2oc(=O)c(-c3ccc(O)c(F)c3)cc2c1` [Compound 7, 3–(3-fluoro-4-hydroxyphenyl)-6-methoxy-2H-chromen-2-one], the IC50 under setting [1] is 851 nM and the IC50 under setting [2] is less than 1000 nM.
